Like-named read-outs stand apart in the source and are kept apart here.
Assays:
β-catenin = β-catenin protein level in K562 cell extracts by western blot; assay type: cell-based, human; conditions: for β-catenin level in K562 cells: 0.1-40 μM, 24 hours
Description: The second portion was to quantitate the levels of β-catenin protein by western blot. TET's ability in an in vitro assay to reduce β-catenin expression was tested in human erythroleukemic (K562) cells. Testing was conducted by Alamo Laboratories, San Antonia, TX.
Briefly, the method to quantitate β-catenin protein by western blot was as follows: Extracts of K562 cells (untreated and treated with various concentrations of tetrandrine) were concentrated to 0.4 ml using Centricon-3 column to yield a protein concentration of approximately 2 mg/ml. Samples were mixed with 5× Laemmli buffer and loaded on 8-16% Tris-Glycine gradient gel, then polyacrylamide gel electrophoresis (PAGE) was run at 85 volts for 100 minutes at 6° C. and proteins were transferred on PVDF membrane at 70 Volts for 85 minutes at 8° C. Membrane was blocked with 5% milk in Tris-buffered Saline containing 0.1% TW-20 (TBST). Membrane was incubated with primary antibody for 18 hours at 4° C. followed by 3 washes, 5 minutes each, with TBST and incubated with secondary antibody in TBST for 2 hours at 25° C. The membrane was washed again with TBST as described above and incubated with ECL-2 substrate for 5 minutes and scanned on Kodak Image Station. After scan, blot was stripped of primary and secondary antibodies and re-probed with anti-beta Actin antibody as described above. Protein bands in WB images were quantitated using Molecular Imaging software pack MIS-4.0 software and tabulated in Excel spreadsheet.

[1] = test system: CML colonies (secondary clonal growth); experiment: Replating assay, secondary clonal growth of CML colonies; assay type: cell-based, human; conditions: colonies from original cultures with ES-3000 @10 μM
bcr-abl = experiment: TaqMan qPCR assay for bcr-abl and abl in plucked CML colonies; assay type: cell-based, human; conditions: 10 μM
Description: To determine whether a colony was normal (bcr-abl negative and abl positive) or diseased (bcr-abl and abl positive), a TaqMan®-based qPCR test was used. In order to score the colonies positive or negative, the following scoring strategy was performed. All colonies were assayed in duplicate for each target. If a singleton reaction yielded a Ct then the reaction scored a 1. If no Ct was recorded, a score of 0 was given. From here, we used a logic test to score the colonies into four different categories: bcr-abl and abl, abl only, bcr-abl only or both negative. In order to be placed in a category, a colony must score a 1 in both reactions. However, if a colony only scored a 1 for one out of the two reactions, this colony was removed from the analysis. If a colony scored a 1 for each reaction (both ber-abl and abl) the colony was placed into the ber-abl and abl category, signifying it as a diseased colony. Alternatively, if a colony scored a 1 in only both of the ber-abl reactions or a 1 in only both the abl reactions, the colony was placed in the ber-abl only or abl only category, respectively. If the colony scored a 0 for both targets (bcr-abl and abl) then the colony was placed in the both negative category.
In total 48 primary colonies and 31 secondary replated colonies were assessed for bcr-abl and abl using qPCR. […] Thirteen secondary colonies treated with Tetrandrine at 10 μM were assessed.

hERG = hERG (Homo sapiens, UniProt Q12809); experiment: hERG inhibition, IonWorks HT electrophysiology in CHO cells stably transfected with hERG; conditions: for IC50: read-out: hERG IC50, CHO cells stably transfected with hERG, 300 sec contact
Sequence of hERG (Q12809 whole entry): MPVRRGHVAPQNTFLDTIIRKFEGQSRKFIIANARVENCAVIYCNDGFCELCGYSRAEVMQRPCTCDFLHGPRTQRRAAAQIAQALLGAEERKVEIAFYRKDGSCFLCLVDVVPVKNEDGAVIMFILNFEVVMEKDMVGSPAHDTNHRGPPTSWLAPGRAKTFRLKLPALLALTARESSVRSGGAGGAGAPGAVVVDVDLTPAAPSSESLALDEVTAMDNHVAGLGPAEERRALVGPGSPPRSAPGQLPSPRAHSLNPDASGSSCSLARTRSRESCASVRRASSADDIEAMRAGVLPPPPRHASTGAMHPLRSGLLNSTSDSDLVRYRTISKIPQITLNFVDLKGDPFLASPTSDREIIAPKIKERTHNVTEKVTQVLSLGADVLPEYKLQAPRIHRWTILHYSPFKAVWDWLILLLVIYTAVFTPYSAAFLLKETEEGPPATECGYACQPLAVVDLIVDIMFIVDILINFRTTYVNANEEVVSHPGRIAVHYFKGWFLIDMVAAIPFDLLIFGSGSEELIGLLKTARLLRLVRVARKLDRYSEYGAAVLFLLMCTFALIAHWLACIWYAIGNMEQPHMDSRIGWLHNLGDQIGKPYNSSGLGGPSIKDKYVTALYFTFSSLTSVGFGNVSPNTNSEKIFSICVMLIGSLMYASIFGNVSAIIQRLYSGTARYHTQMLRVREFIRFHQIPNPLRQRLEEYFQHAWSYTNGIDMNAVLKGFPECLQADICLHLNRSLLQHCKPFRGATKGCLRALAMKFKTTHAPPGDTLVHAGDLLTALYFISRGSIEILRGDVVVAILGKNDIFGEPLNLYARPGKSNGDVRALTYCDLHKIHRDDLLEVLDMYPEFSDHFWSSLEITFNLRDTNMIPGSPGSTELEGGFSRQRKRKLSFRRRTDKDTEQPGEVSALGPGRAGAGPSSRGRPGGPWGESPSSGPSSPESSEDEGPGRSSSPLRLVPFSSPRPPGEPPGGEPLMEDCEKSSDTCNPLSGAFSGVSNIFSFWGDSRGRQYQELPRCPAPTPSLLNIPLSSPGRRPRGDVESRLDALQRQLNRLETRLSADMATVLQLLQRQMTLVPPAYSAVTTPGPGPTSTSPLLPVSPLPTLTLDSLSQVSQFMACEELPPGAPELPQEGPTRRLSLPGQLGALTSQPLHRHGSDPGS
Description: The purpose of this study was to evaluate the potential of a test article to inhibit hERG. The experiments are performed on an Ion Works™ HT instrument (Molecular Devices Corporation), which automatically performs electrophysiology measurements in […] single cells simultaneously in aspecialized 384-well plate (PatchPlate). All cell suspensions, buffers and test compound solutions are at room temperature during the experiment. The cells used are Chinese hamster ovary (CHO) cells stably transfected with hERG (cell-line obtained from Cytomyx, UK). A single-cell suspension is prepared in extracellular solution (Dulbecco's phosphate buffered saline with calcium and magnesium pH 7-7.2) and aliquots added automatically to each well of a PatchPlate™. The cells are then positioned over a small hole at the bottom of each well by applying a vacuum beneath the plate to form an electrical seal. The vacuum is applied through a single compartment common to all wells which is filled with intracellular solution (buffered to pH 7.2 with HEPES). The resistance of cach seal is measured via a common ground-electrode in the intracellular compartment and individual electrodes placed into each of the upper wells. Electrical access to the cell is then achieved by circulating a perforating agent, amphotericin, underneath the PatchPlate and then measuring the pre-compound hERG current. An electrode is positioned in the extracellular compartment and a holding potential of −80 mV applied for 15 sec. The hERG channels are then activated by applying a depolarizing step to +40 mV for 5 sec and then clamped at −50 mV for 4 sec to elicit the hERG tail current, before returning to −80 mV for 0.3 sec. Test compound is then added automatically to the upper wells of the PatchPlateTM from a 96-well microtitre plate containing a range of concentrations of each compound. […] The test compound is left in contact with the cells for 300 sec before recording currents using the same voltage-step protocol as in the pre-compound scan. […] Each concentration is tested in 4 replicate wells on the PatchPlate™. […] Post-compound currents are then expressed as a percentage of pre-compound currents and plotted against concentration for each compound (FIG. 8). Testing was conducted by Cyprotex US, LLC, Watertown, MA.

[2] = cited from earlier work
leukemia cell lines = conditions: cited from earlier work
Pgp = Pgp (Homo sapiens, UniProt P08183); conditions: cited from earlier work
Sequence of Pgp (P08183 whole entry): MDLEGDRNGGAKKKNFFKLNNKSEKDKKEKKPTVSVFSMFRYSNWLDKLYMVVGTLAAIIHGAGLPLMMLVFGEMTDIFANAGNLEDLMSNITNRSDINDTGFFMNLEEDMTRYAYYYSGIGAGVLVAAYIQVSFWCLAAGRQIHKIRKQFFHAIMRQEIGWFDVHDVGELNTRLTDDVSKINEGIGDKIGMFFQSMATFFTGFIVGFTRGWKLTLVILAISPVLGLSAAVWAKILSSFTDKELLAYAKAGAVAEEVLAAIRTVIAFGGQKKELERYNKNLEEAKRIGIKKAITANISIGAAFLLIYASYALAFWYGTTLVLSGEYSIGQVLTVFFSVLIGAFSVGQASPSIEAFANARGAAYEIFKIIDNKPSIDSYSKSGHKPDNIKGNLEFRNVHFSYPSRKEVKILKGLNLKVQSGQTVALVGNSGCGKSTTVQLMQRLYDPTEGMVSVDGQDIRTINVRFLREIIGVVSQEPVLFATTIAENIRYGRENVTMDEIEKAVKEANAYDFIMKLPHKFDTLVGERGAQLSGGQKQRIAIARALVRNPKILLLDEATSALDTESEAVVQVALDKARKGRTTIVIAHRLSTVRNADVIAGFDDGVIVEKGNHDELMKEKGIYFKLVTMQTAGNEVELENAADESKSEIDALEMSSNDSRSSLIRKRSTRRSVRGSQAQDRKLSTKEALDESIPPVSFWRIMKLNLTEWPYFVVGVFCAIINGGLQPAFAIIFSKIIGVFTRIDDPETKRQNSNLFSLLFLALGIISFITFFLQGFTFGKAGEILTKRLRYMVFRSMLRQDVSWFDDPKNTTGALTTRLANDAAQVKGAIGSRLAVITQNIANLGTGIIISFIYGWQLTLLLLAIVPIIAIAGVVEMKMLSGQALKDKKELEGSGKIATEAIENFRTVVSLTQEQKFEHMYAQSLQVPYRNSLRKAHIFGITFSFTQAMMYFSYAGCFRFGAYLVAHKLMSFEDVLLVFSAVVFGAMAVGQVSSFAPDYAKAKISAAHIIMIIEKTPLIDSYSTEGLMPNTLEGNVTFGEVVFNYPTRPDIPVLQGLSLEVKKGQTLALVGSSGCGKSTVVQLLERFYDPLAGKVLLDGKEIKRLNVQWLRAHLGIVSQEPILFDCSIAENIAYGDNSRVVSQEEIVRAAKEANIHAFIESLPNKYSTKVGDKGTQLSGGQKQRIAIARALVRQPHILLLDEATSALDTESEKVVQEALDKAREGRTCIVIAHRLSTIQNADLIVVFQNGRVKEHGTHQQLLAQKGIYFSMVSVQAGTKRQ

[3] = Primary colonies, of 17 colonies
[4] = Secondary colonies, of 10 colonies

Question: For “6,6′,7,12-tetramethoxy-2,2′-dimethyl-berbaman [ES-3000]”, which “β-catenin level in K562 cells” value (β-catenin; listed as TET) is on record?
Answer: The value was “reduced β-catenin”.

Question: What about the “β-catenin level in K562 cells” value (β-catenin; listed as Tetrandrine) of the same substance?
Answer: Its value is “lowers the β-catenin level in K562 cells in a dose dependent manner”.

Question: And the “β-catenin band in western blot” value (β-catenin; K562 cells treated with 0 to 10 uM)?
Answer: Its value is “A clear β-catenin band was evident”.

Question: And the “β-catenin band in western blot” value (β-catenin; K562 cells treated with 20 and 40 uM)?
Answer: Its value is “a convincing β-catenin band was absent”.

Question: And the “beta-catenin level (quantitation of protein bands)” value (β-catenin; K562 cells treated with >10 uM)?
Answer: Its value is “significantly less”.

Question: And the “average CFC per well (secondary growth)” value [1]?
Answer: Its value is “three”.

Question: What about the “wells supported secondary growth with one or more colony” value [1] of the same substance?
Answer: Its value is 54.2%.

Question: And the abl only colonies (bcr-abl; Primary colonies)?
Answer: Its abl only colonies is 1.

Question: What about the “bcr-abl and abl colonies” value (bcr-abl; Primary colonies) of the same substance?
Answer: Its value is 11.

Question: And the bcr-abl only colonies (bcr-abl; Primary colonies)?
Answer: The bcr-abl only colonies was 1.

Question: What about the both negative colonies (bcr-abl; Primary colonies) of the same substance?
Answer: Its both negative colonies is 4.

Question: And the “colonies abl positive only” value (bcr-abl; [3])?
Answer: The value was 5.8%.

Question: And the “colonies bcr-abl and abl positive” value (bcr-abl; [3])?
Answer: The value was 65%.

Question: What about the “colonies negative for both targets” value (bcr-abl; [3]) of the same substance?
Answer: Its value is 23.5%.

Question: What about the “colonies bcr-abl and abl positive” value (bcr-abl; Primary colonies, of 17 colonies, listed as Tetrandrine) of the same substance?
Answer: The value was 64.7%.

Question: What about the abl only colonies (bcr-abl; Secondary colonies) of the same substance?
Answer: The abl only colonies was 1.

Question: What about the “bcr-abl and abl colonies” value (bcr-abl; Secondary colonies) of the same substance?
Answer: Its value is 0.

Question: What about the bcr-abl only colonies (bcr-abl; Secondary colonies) of the same substance?
Answer: The bcr-abl only colonies was 0.

Question: What about the both negative colonies (bcr-abl; Secondary colonies) of the same substance?
Answer: Its both negative colonies is 9.

Question: What about the “colonies negative for both bcr-abl and abl” value (bcr-abl; [4]) of the same substance?
Answer: Its value is 90%.

Question: What about the “colonies positive for abl only” value (bcr-abl; [4]) of the same substance?
Answer: The value was 10%.

Question: What about the IC50 (hERG) of the same substance?
Answer: The IC50 was 5.15 µM.

Question: And the IC50 (hERG; listed as TET)?
Answer: Its IC50 is 5.2 µM.

Question: What about the “plasma level above which QT prolongation might be expected” value (hERG; subjects) of the same substance?
Answer: Its value is “above 249 ng/mL”.

Question: What about the “safety margin for cardiac conduction-related toxicity (hERG IC50 versus human Cmax)” value (hERG; utilizing Cmax from previous human clinical experience) of the same substance?
Answer: The value was 13 fold.

Question: What about the protein binding [2] of the same substance?
Answer: The protein binding was “highly protein bound”.

Question: And the “50% growth inhibition (Log GI50)” value (leukemia cell lines; NCI 60 cell line screen)?
Answer: Its value is −5.0 to −6.6.

Question: And the GI50 (leukemia cell lines; read-out: 50% growth inhibition (GI50), NCI 60 cell line screen)?
Answer: The GI50 was 0.25 to 10 µM.

Question: And the Pgp substrate (Pgp)?
Answer: Its Pgp substrate is “not a substrate of Pgp”.

Question: What about the “function of Pgp” value (Pgp) of the same substance?
Answer: The value was “directly inhibits the function of Pgp in a dose-dependent manner”.

— patent publication US20240307372A1, “COMPOSITIONS AND METHODS TO IMPROVE BENEFIT OF SUBOPTIMALLY ADMINISTERED THERAPEUCTICS FOR THE TREATMENT OF BENIGN AND NEOPLASTIC DISEASES, INFECTIONS, INFLAMMATORY, METABOLIC AND IMMUNOLOGIAL DISEASES” (priority 2023, published 2024)
